Measured values taken from patent US20230321106A1, “USE OF TOPICAL BRAF INHIBITOR COMPOSITIONS FOR TREATMENT OF EPIDERMAL GROWTH FACTOR RECEPTOR DOWNSTREAM EFFECTORS - INDUCED CUTANEOUS REACTIONS” (Lutris Pharma Ltd., priority 2020, published 2023).
“Also recorded” adds a separate entry of the source.

How the values were obtained:
[1] = tested on: phosphorylated ERK1/2 (MAPK pathway) in HKGS-activated HEKa cells; assay: Reversal of EGFR inhibitor-mediated pERK inhibition in HKGS-activated HEKa cells, Western blot; assay type: cell-based, human; conditions: two hours
Description: Primary HEKa, isolated from adult skin of a single donor and cryopreserved at the end of primary culture (Gibco catalog number C0055C, Thermo Fisher Scientific, Waltham, MA), were cultured in T25 flasks at 37° C., 5% CO2 in growth medium (Epilife™ CF Kit, Gibco) supplemented with 60 μM calcium (Gibco) and HKGS (Gibco). After at least three passages, cells were harvested with trypsin when flask reached 70-80% confluence, and seeded in 10 cm culture dishes (250,000 cells/dish) in 9 ml of growth medium overnight. To analyze the effect of HKGS or a BRAF inhibitor on pERK, cells were starved for 2.5 hours in 5 mL of starvation medium without HKGS, and then individual plates were incubated for two hours with DMSO 0.1%, HKGS, vemurafenib 0.3 μM (0.146 μg/mL), or LUT014 0.3 μM (0.158 μg/mL). […] Cells were harvested with 1 ml cold PBS containing EDTA-free, phosphatase inhibitor cocktail (MilliporeSigma, Burlington, MA) using a cell scraper. […] The signals of phosphorylated ERK1/2 and total ERK2 were quantified using ImageJ software and the phosphorylated ERK1/2/total ERK2 ratio was calculated. For the quantification, equal sized rectangles were drawn around the bands of the phosphorylated ERK1/2 and the total ERK2 and the pixels in each rectangle were measured.

[2] = tested on: phosphorylated ERK1/2 (MAPK pathway) in primary adult human epidermal keratinocytes (HEKa); assay: pERK induction in HEKa cells, Western blot (phosphorylated ERK1/2 / total ERK2); assay type: cell-based; conditions: 0.3 μM, two hours
Description: Primary HEKa, isolated from adult skin of a single donor and cryopreserved at the end of primary culture (Gibco catalog number C0055C, Thermo Fisher Scientific, Waltham, MA), were cultured in T25 flasks at 37° C., 5% CO2 in growth medium (Epilife™ CF Kit, Gibco) supplemented with 60 μM calcium (Gibco) and HKGS (Gibco). After at least three passages, cells were harvested with trypsin when flask reached 70-80% confluence, and seeded in 10 cm culture dishes (250,000 cells/dish) in 9 ml of growth medium overnight. To analyze the effect of HKGS or a BRAF inhibitor on pERK, cells were starved for 2.5 hours in 5 mL of starvation medium without HKGS, and then individual plates were incubated for two hours with DMSO 0.1%, HKGS, vemurafenib 0.3 μM (0.146 μg/mL), or LUT014 0.3 μM (0.158 μg/mL). To analyze the effects of LUT014 to re-activate pERK in HKGS-activated HEKa cells cultured in an EGFR inhibitor, cells were seeded in 60 mm dishes (120,000 cells/dish) in 4 ml growth medium. […] The signals of phosphorylated ERK1/2 and total ERK2 were quantified using ImageJ software and the phosphorylated ERK1/2/total ERK2 ratio was calculated. For the quantification, equal sized rectangles were drawn around the bands of the phosphorylated ERK1/2 and the total ERK2 and the pixels in each rectangle were measured.

[3] = tested on: MIA-PaCa-2 cells; assay: MIA-PaCa-2 cellular proliferation (ATP-lite, 72 hours); assay type: cell-based, human
Description: MIA-PaCa-2 cells (ATCC catalog number CRM-CRL-1420, Manassas, VA) were cultured at 37° C. in T75 flasks in growth medium DMEM (ATCC) supplemented with 10% FBS and 2.5% horse serum. After 4 days, when the flasks reached 50% confluence, cells were harvested with trypsin and seeded in 96 well plates at a concentration of 5000 cells/well, in a total volume of 0.1 ml/well starvation medium and incubated 24 hours at 37° C., 5% CO2. The next morning, medium was replaced with 180 μl growth medium (containing 10% FBS and 2.5% horse serum) and 20 μl of each concentration of LUT014, DMSO or PBS. Each concentration of each compound was added to triplicate wells. The plates were incubated for 72 hours at 37° C., 5% CO2. Cellular proliferation was measured using the ATP-lite proliferation assay (Perkin Elmer, Waltham, MA) following the manufacturer's instructions, with the luminescence measured using a CLARIOstar reader (BMG Labtech, Ortenberg, Germany), and analyzed with the ATPlite TOP program (Perkin Elmer).

[4] = Phase 1 clinical trial: plasma pharmacokinetics (LC-MS/MS); assay type: in vivo, human; conditions: patients, topical gel; for systemic absorption / exposure after topical administration: plasma
Description: Blood samples for PK analysis were taken from the initial three patients enrolled to each dosing cohort (total 9 patients). PK samples were collected pre-dose on day 0 and day 7 and at 1, 2, 4, 8 and 24 hours post-dose. A qualified liquid chromatography tandem mass spectroscopy LC-MS/MS analytical assay with an LLOQ of 10 pg/ml was used to determine concentrations of LUT014 in plasma. Plasma concentrations below the limit of quantitation (<10 pg/mL) were treated as zero for the calculations of mean (SD).
Tabular summaries of the secondary safety assessments included descriptive statistics (i.e., mean, standard deviation, median, and range for continuous data and frequency for categorical data) for each visit assessed, as well as for the calculated changes from baseline. For the pharmacokinetics analyses, plasma LUT014 concentration-time profiles were analyzed by non-compartmental methods and PK parameters were calculated by standard equations, when plasma levels are achieved. PK analyses produced using Phoenix® WinNonLin (Certara, Princeton, NJ). The efficacy assessments NCI CTCAE skin and subcutaneous tissue disorders grading scale, MASCC Study Group EGFR Inhibitor-dermatologic adverse event grading scale, FACT-EGFRI-13 questionnaire, were summarized by treatment group using descriptive statistics as appropriate (i.e., mean, standard deviation, median, and range for continuous data and frequency for categorical data). All analyses were performed using SAS® Software (version 9.2, SAS Institute, Cary, NC).

[5] = tested on: anti-EGFR therapy-induced acneiform lesions; assay: Phase 1 clinical trial: efficacy on acneiform lesions (CTCAE, MASCC, FACT-EGFRI-13); assay type: in vivo, human
Description: Three scales were used to evaluate the severity of acneiform lesions during the clinical trial period. The primary readout was based on the National Cancer Institute (NCI) Common Terminology Criteria for Adverse Events (CTCAE) version 5.0 for grading acneiform rash. The clinical trial eligibility criteria were based on having an acneiform skin rash of grade 1 or 2 while on anti-EGFR therapy, and therefore the grading change from baseline with the topical application of LUT014 was measured. The Multinational Association of Supportive Care in Cancer (MASCC) Study Group EGFR Inhibitor-dermatologic adverse event grading scale is a central reviewer-assessment based on the review of pictures provided to one remote reviewer (Wong, et al., Support Care Cancer 21, 2933-2948, 2013). The Functional Assessment of Cancer Therapy (FACT) is a health-related quality of life questionnaire to assess symptoms associated with EGFR inhibitors (Wagner, et al., Support Care Cancer 21, 1033-1041, 2013). The score based on the 13 skin-specific questions (FACT-EGFRI-13) was reported, and was calculated by the change in total score relative to baseline, with a decrease in value representing worsening and an increase value representing improvement of skin-related symptoms.
Evaluation of the preliminary efficacy of LUT014 gel for the treatment of anti-EGFR therapy-induced acneiform lesions was based on the following: A) Acneiform lesions grading performed locally by the Investigator using the NCI CTCAE version 5.0 skin and subcutaneous tissue disorders grading scale. B) Acneiform lesions grading performed by a central reader, using the MASCC Study Group EGFR Inhibitor-dermatologic adverse event grading scale (Wong, et al., 2013). Grading was based on masked photographs of patients' face, neck, and upper portion of the anterior and posterior chest. C) Patient self-reported quality of life FACT-EGFRI-13 questionnaire (Wagner et al, 2013), assessing the physical and psychological effects of the dermatological symptoms associated with anti-EGFR treatment on study patients. Only the first 13 questions of the FACT-EGFRI that are relevant for the skin were evaluated. Data from all patients who received at least one dose of study drug were included in the safety and efficacy analyses.

[6] = Phase 1 clinical trial of topical LUT014 gel: safety and tolerability; assay type: in vivo, human
Text: This was an open-label, dose escalation study of LUT014 gel topically administered for four weeks. A 2-week screening period (day −14 to day −1) was followed by a 4-week treatment period (day 0 to day 27). Patients applied the study drug once daily to their face, neck, chest, and upper back. The post-treatment safety follow-up period ran from day 28 to day 55. Additionally, two long term safety follow up visits were done 3 and 6 months after completion of treatment, including a dermatological exam to detect any potential BRAF inhibitor skin toxicities within the treatment area.
Three dose levels of LUT014 gel were tested: 0.3 mg/g, 1.0 mg/g and 2.5 mg/g. The dose of LUT014 was escalated in sequential dose cohorts of 3 to 6 patients, in a conventional 3+3 escalating dose design. Escalation to the next dose level was permitted if no DLT was reported by the three patients in the cohort within 4 weeks of receiving the first dose of LUT014. If one out of three patients developed a dose limiting toxicity (DLT), additional three patients were planned to be treated with study drug at the same dose level. At any given dose level, if more than one out of the three or six patients experienced a DLT within 4 weeks of receiving the first dose of LUT014, the dose level was determined to have exceeded the MTD, and the MTD was set to be the next lower dose.
A DLT was defined as any treatment-emergent grade 2 or higher clinically significant adverse event, with the exception of a transient grade 2 adverse event (i.e., one that returns to grade 1 or baseline within 7 days) or grade 2 adverse event that was manageable with standard of care (i.e., one that returns to grade 1 or baseline within 14 days), that occurred within 4 weeks of the first dose of study drug for which there was a reasonable possibility that LUT014 had caused the event. Upon completion of the 4-week treatment period of the third patient in each dosing cohort, a Safety Review Committee (SRC) meeting was set to review the safety data and to provide recommendation/decision on dose escalation/de-escalation, or expansion of dosing cohort.
Safety and tolerability were assessed primarily based on the adverse events from day 0 to day 55. In addition to the adverse events assessment, the safety measurements included physical examination, vital signs and body weight, 12-lead ECG, ECOG performance status, safety labs including complete blood count, comprehensive metabolic panel and urinalysis. At 3 and 6 months […] a dermatologist performed a skin assessment of the areas of the skin where LUT014 gel was applied to screen for potential cutaneous toxicities known to be associated with approved BRAF inhibitors, including erythema nodosum-type rash, photosensitivity, squamous papillomas or warts, keratoacanthomas, cutaneous squamous cell carcinoma, dry skin, and folliculitis or cysts (Welsh, et al., Therapeutic advances in medical oncology 7, 122-136, 2015).

[7] = topical gel 0.3, 1.0, 2.5 mg/g once daily, 4 weeks, 10 patients

SMILES: C#Cc1cccc(Nc2ncnc3cc(OCCOC)c(OCCOC)cc23)c1 [erlotinib, reference compound]
- HKGS stimulation of the MAPK pathway (pERK) ([1]; HKGS plus erlotinib 10 μM): partially inhibited

SMILES: Cc1ccc2c(Nc3cccc(OC(F)(F)F)c3)nccc2c1Nc1ncccc1-c1ncnc2[nH]cnc12 [LUT014]
- increase in pERK, compared with HKGS [2]: higher
- concentration of peak proliferation [3]: 0.041 µM
- proliferation at the highest concentrations [3]: growth arrest
- plasma concentrations lower than effective systemic concentrations of other BRAF inhibitors [4]: 3 to 4 orders of magnitude
- plasma concentrations ([4]; day 0 and day 7): in the pg/mL range
- systemic absorption / exposure after topical administration ([4]; day 0 and day 7): negligible absorption and minimal systemic exposure
- systemic absorption / exposure after topical administration ([4]; day 0 and day 7, listed as compound of formula IV): negligible to minimal systemic absorption
- time to CTCAE improvement ([5]; cohort 1, 0.3 mg/g): two of the patients showing improvement within the first week
- FACT-EGFRI-13 skin-related symptom questionnaire change ([5]; cohort 1, 0.3 mg/g, 28-day treatment): the three patients had symptomatic improvement
- benefit after administration had terminated ([5]; cohort 1, 0.3 mg/g, all three patients, day 55): sustained benefit by day 55
- acneiform rash CTCAE grade change ([5]; cohort 1, 0.3 mg/g, three patients with grade 2 at baseline, 28-day treatment): all improved to grade 1
- central reviewer MASCC grading change ([5]; cohort 1, 0.3 mg/g, treatment period): two patients improved and one patient did not change
- acneiform skin rash, overall ([5]; cohort 2 (1.0 mg/g)): evidence of acneiform rash improvement
- FACT-EGFRI-13 symptom questionnaire change ([5]; cohort 2, 1.0 mg/g, baseline grade 1 rash): two patients with baseline grade 1 rash reported stable skin-related symptoms
- FACT-EGFRI-13 symptom questionnaire change ([5]; cohort 2, 1.0 mg/g, baseline grade 2 rash): two patients with baseline grade 2 rash improved symptoms
- MASCC grading change ([5]; cohort 2, 1.0 mg/g, four patients): three patients improved grading during the treatment period while one worsened
- acneiform rash CTCAE grade change ([5]; cohort 2, 1.0 mg/g, patients with grade 1 at baseline): two with grade 1 at baseline that did not change in grading
- acneiform rash CTCAE grade change ([5]; cohort 2, 1.0 mg/g, patients with grade 2 at baseline, 28-day treatment): two with grade 2 at baseline that improved to grade 1
- FACT-EGFRI-13 symptom questionnaire change ([5]; cohort 3, 2.5 mg/g): one patient improved and two worsened
- acneiform rash CTCAE grade change ([5]; cohort 3, 2.5 mg/g, three patients, 28-day treatment): one improved, another was stable and one patient had worsening acneiform skin rash
- MASCC grading change ([5]; cohort 3, 2.5 mg/g, compared with the CTCAE course): The same course was evident
- acneiform skin rash, overall ([5]; highest dose cohort (2.5 mg/g)): no consistent evidence of improvement
- improvement of acneiform rash in grade 2 patients ([5]; low and intermediate cohorts (0.3 and 1.0 mg/g)): all grade 2 patients (six patients)
- acneiform skin rash, overall by three assessment criteria ([5]; lowest dose cohort (0.3 mg/g)): improved in all patients
- effect on pERK inhibition by EGFR inhibitors (erlotinib, cetuximab) ([1]; HKGS plus EGFR inhibitor plus LUT014 0.3 μM): abrogated the inhibitory effect of both EGFR inhibitors
- toxicities associated with oral systemic BRAF inhibitors (photosensitivity, maculo-papular rash, hyperkeratosis) ([6]; all cohorts): no local or systemic toxicities
- patients with an adverse event considered related to the study drug ([6]; all cohorts, 10 patients, pruritus, dry skin, stinging sensation): Seven
- Treatment-related adverse events: Dry skin, All Grades ([6]; human, in vivo, 4 weeks): 1
- Treatment-related adverse events: Dry skin, Grade 3 or 4 ([6]; human, in vivo, 4 weeks): 0
- Treatment-related adverse events: Local Pain, All Grades ([6]; human, in vivo, 4 weeks): 1
- Treatment-related adverse events: Local Pain, Grade 3 or 4 ([6]; human, in vivo, 4 weeks): 0
- Treatment-related adverse events: Pruritus, All Grades ([6]; human, in vivo, 4 weeks): 6
- Treatment-related adverse events: Pruritus, Grade 3 or 4 ([6]; human, in vivo, 4 weeks): 0
- severity grade of related adverse events ([6]; human, in vivo, 4 weeks): 1-2
- total adverse events of any attribution ([6]; human, in vivo, 4 weeks): 38
- dose-limiting toxicities [6, 7]: no dose-limiting toxicities; also recorded: no dose limiting toxicity
- tolerability [6, 7]: well tolerated
